Laboratory results taken from US4033960A, “2-Mercaptoquinoxaline-di-N-oxide products and a method for their preparation” (Bayer Aktiengesellschaft, priority 1973, dated 1977).
≈ marks a conversion by molar mass, not a printed value.

Columns and labels:
Assay in all cases: Minimum inhibitory concentration by the plate test (agar)
Format in all cases: cell-based
Escherichia coli C 165 = details: 0-10 colonies formed, pH 7.4; for Minimum inhibitory concentration: per ml of nutrient medium, 5,000 cells/10 ml
Protocol: (§1) […] The bacteria to be tested are cast, together with the nutrient medium and the test substance distributed in the agar, into a Petri dish. The number of bacterial cells is 5,000/10 ml of nutrient medium. The minimum inhibitory concentration is the concentration at which 0-10 colonies are formed.

[1] = test system: Staphylococcus aureus 133; details: per ml of nutrient medium, 5,000 cells/10 ml, 0-10 colonies formed, pH 7.4
Protocol: as §1

Escherichia coli A 261 = details: 0-10 colonies formed, pH 7.4; for Minimum inhibitory concentration: per ml of nutrient medium, 5,000 cells/10 ml
Protocol: as §1

Proteus vulgaris 1017 = details: per ml of nutrient medium, 5,000 cells/10 ml, 0-10 colonies formed, pH 7.4
Protocol: as §1

Klebsiella 8085 = details: per ml of nutrient medium, 5,000 cells/10 ml, 0-10 colonies formed, pH 7.4
Protocol: as §1

Compound | Minimum inhibitory concentration (Escherichia coli C 165) [µg/mL] | Minimum inhibitory concentration [1] [µg/mL] | Minimum inhibitory concentration (Escherichia coli A 261) [µg/mL] | Minimum inhibitory concentration (Proteus vulgaris 1017) [µg/mL] | Minimum inhibitory concentration (Klebsiella 8085) [µg/mL] | MIC (Escherichia coli C 165; C165, per ml of nutrient medium, 5,000 cells/10 ml) [µg/mL] | MIC (Proteus vulgaris 1017) [µg/mL] | MIC [1] [µg/mL] | MIC (Escherichia coli A 261; A261, per ml of nutrient medium, 5,000 cells/10 ml) [µg/mL] | MIC (Klebsiella 8085) [µg/mL]
6(7)-bromo-2-mercapto-3-methyl-quinoxaline-di-N-oxide [Example 4] | 100 | 100 | 100 | – | – | – | – | – | – | –
6(7)-chloro-2-mercapto-3-methyl-quinoxaline-di-N-oxide [Example 2] | 128 | 128 | 128 | 64 to 128 | 128 | – | – | – | – | –
6(7)-fluoro-2-mercapto-3-methyl-quinoxaline-di-N-oxide [Example 3] | 64 to 128 | 128 | 128 | 128 | – | – | – | – | – | –
6(7)-methoxy-2-mercapto-3-methyl-quinoxaline-di-N-oxide [Example 7] | 64 to 128 | 128 | 128 | 128 | – | – | – | – | – | –
Cc1c(S)[n+]([O-])c2ccccc2[n+]1[O-] [Example 1, 2-Mercapto-3-methylquinoxaline-di-N-oxide] | – | – | – | – | – | 50 to 100 (≈ 240 to 480 µM) | 100 (≈ 480 µM) | 100 (≈ 480 µM) | 50 to 100 (≈ 240 to 480 µM) | 10 (≈ 48 µM)
